Laboratory results as given in ChEMBL document CHEMBL1201862, “PubChem BioAssay data set” (2004).
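Step 1: Grow cells in 96-well plates. Step 2: Expose to compound for 48 hours at 5 concentrations. Step 3: Interpolate endpoints linearly; if unreached, use highest concentration. GI50: concentration for 50% inhibition of growth.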 Activity calls are given as the source filed them. Cut-off read from the data, not from the text of the source: active = GI50 up to about 1.1 µM and inactive = higher.

Assays:
Assay in all cases: NCI tumour cell line growth inhibition, 48 h
786-0 = system: 786-0
A549 = system: A549
ACHN = system: ACHN
BT-549 = system: BT-549
EKVX = system: EKVX
HL-60 = system: HL-60
Hs-578T = system: Hs-578T
M14 = system: M14
MOLT-4 = system: MOLT-4
NCI/ADR-RES = system: NCI/ADR-RES
OVCAR-5 = system: OVCAR-5
SF-268 = system: SF-268
SK-MEL-5 = system: SK-MEL-5
SNB-19 = system: SNB-19
SR = system: SR
U-251 = system: U-251
UACC-257 = system: UACC-257
UACC-62 = system: UACC-62
SNB-75 = system: SNB-75

SMILES	GI50 (786-0)	GI50 (A549)	GI50 (ACHN)	GI50 (BT-549)	GI50 (EKVX)	GI50 (HL-60)	GI50 (Hs-578T)	GI50 (M14)	GI50 (MOLT-4)	GI50 (NCI/ADR-RES)	GI50 (OVCAR-5)	GI50 (SF-268)	GI50 (SK-MEL-5)	GI50 (SNB-19)	GI50 (SR)	GI50 (U-251)	GI50 (UACC-257)	GI50 (UACC-62)	GI50 (SNB-75)
c1ccc(-c2cc(-c3cc(-c4ccccc4)no3)on2)cc1	72.1 µM (inactive)	53.2 µM (inactive)	29.3 µM (inactive)	> 100 µM (inactive)	72.6 µM (inactive)	> 100 µM (inactive)	47.6 µM (inactive)	> 100 µM (inactive)	25.2 µM (inactive)	29.7 µM (inactive)	> 100 µM (inactive)	66.1 µM (inactive)	> 100 µM (inactive)	49.3 µM (inactive)	11.5 µM (inactive)	29.2 µM (inactive)	> 100 µM (inactive)	> 100 µM (inactive)	–
O=c1[nH]c2cccc([N+](=O)[O-])c2c(=O)n1-c1ccc(Cl)cc1	19.8 µM (inactive)	12.4 µM (inactive)	8.51 µM (inactive)	10.7 µM (inactive)	10.8 µM (inactive)	11.7 µM (inactive)	17 µM (inactive)	10.7 µM (inactive)	19 µM (inactive)	10.4 µM (inactive)	16.3 µM (inactive)	12.2 µM (inactive)	9.71 µM (inactive)	20 µM (inactive)	15 µM (inactive)	16.4 µM (inactive)	11.5 µM (inactive)	5.3 µM (inactive)	–
COc1cc2cc(C(=O)N3CC(CCl)c4c3cc(N)c3ccccc43)[nH]c2c(OC)c1OC (configuration not stated)	< 0.01 µM (active)	< 0.01 µM (active)	< 0.01 µM (active)	< 0.01 µM (active)	< 0.01 µM (active)	–	< 0.01 µM (active)	< 0.01 µM (active)	< 0.01 µM (active)	< 0.01 µM (active)	< 0.01 µM (active)	< 0.01 µM (active)	< 0.01 µM (active)	< 0.01 µM (active)	< 0.01 µM (active)	< 0.01 µM (active)	< 0.01 µM (active)	< 0.01 µM (active)	< 0.01 µM (active)
C1=CC(=[N+]2N=C(c3ccccc3)CC2c2ccccc2)C=CC1=C1SC(c2ccccc2)(c2ccccc2)c2ccccc21.[O-][Cl+3]([O-])([O-])[O-] (configuration not stated)	> 100 µM (inactive)	> 100 µM (inactive)	> 100 µM (inactive)	78.5 µM (inactive)	> 100 µM (inactive)	> 100 µM (inactive)	> 100 µM (inactive)	60.8 µM (inactive)	> 100 µM (inactive)	> 100 µM (inactive)	> 100 µM (inactive)	> 100 µM (inactive)	> 100 µM (inactive)	79.4 µM (inactive)	> 100 µM (inactive)	> 100 µM (inactive)	–	> 100 µM (inactive)	–
C/C=C\C(CC(=O)O)CC(=O)NCCC1CN(S(=O)(=O)C(F)(F)F)c2ccccc21 (configuration not stated)	> 100 µM (inactive)	> 100 µM (inactive)	> 100 µM (inactive)	> 100 µM (inactive)	> 100 µM (inactive)	–	> 100 µM (inactive)	> 100 µM (inactive)	> 100 µM (inactive)	> 100 µM (inactive)	> 100 µM (inactive)	> 100 µM (inactive)	> 100 µM (inactive)	> 100 µM (inactive)	> 100 µM (inactive)	> 100 µM (inactive)	> 100 µM (inactive)	> 100 µM (inactive)	> 100 µM (inactive)
O=C(c1ccccc1)N1C(=S)N(c2ccc([N+](=O)[O-])cc2)C(=N/c2ccccc2)/C1=N\c1ccccc1	> 100 µM (inactive)	41.9 µM (inactive)	52 µM (inactive)	> 100 µM (inactive)	> 100 µM (inactive)	–	> 100 µM (inactive)	> 100 µM (inactive)	19.5 µM (inactive)	> 100 µM (inactive)	> 100 µM (inactive)	> 100 µM (inactive)	> 100 µM (inactive)	> 100 µM (inactive)	20.6 µM (inactive)	44.8 µM (inactive)	> 100 µM (inactive)	97.5 µM (inactive)	24.4 µM (inactive)
